± gives the expanded uncertainty stated by the source.
What was measured:
[1] = Molar enthalpy of transition or fusion; details: Crystal; DSC
[2] = Crystal; for vapor or sublimation pressure: Transpiration method; for Normal melting temperature: DTA

Cc1ccc(N=C2SCC3CCCN2C3)cc1Cl (centres undefined)
Details	Molar enthalpy of transition or fusion [kcal/mol]	Normal melting temperature [°C]
[1]	5.43 ± 0.263	–
[2]	–	133.5 ± 0.5

[2]
Details	vapor or sublimation pressure [kPa]
376.15 K	3.1e-05 ± 3.3e-06
377.15 K	3.39e-05 ± 3.6e-06
378.15 K	3.79e-05 ± 4e-06
379.15 K	4.05e-05 ± 4.3e-06
381.15 K	5.21e-05 ± 5.6e-06
382.15 K	5.74e-05 ± 6.1e-06
383.15 K	6.78e-05 ± 7.2e-06
384.15 K	7.6e-05 ± 8.1e-06
386.15 K	9.31e-05 ± 9.9e-06
388.15 K	0.0001239 ± 1.3e-05
390.15 K	0.0001553 ± 1.7e-05
392.15 K	0.0002006 ± 2.1e-05
394.15 K	0.0002521 ± 2.7e-05
396.15 K	0.0003109 ± 3.3e-05

Clc1ccc(N=C2SCC3CCCN2C3)cc1Cl (centres undefined)
Details	Molar enthalpy of transition or fusion [kcal/mol]	Normal melting temperature [°C]
[1]	5.62 ± 0.263	–
[2]	–	97.8 ± 0.5

[2]
Details	vapor or sublimation pressure [kPa]
352.15 K	1.15e-05 ± 1.2e-06
353.15 K	1.25e-05 ± 1.4e-06
354.15 K	1.59e-05 ± 1.7e-06
355.15 K	1.82e-05 ± 2e-06
356.15 K	2.26e-05 ± 2.4e-06
357.15 K	2.27e-05 ± 2.4e-06
358.15 K	2.56e-05 ± 2.7e-06
359.15 K	2.58e-05 ± 2.8e-06
360.15 K	2.91e-05 ± 3.1e-06
361.15 K	3.49e-05 ± 3.7e-06
362.15 K	4e-05 ± 4.3e-06
363.15 K	4.4e-05 ± 4.7e-06

Clc1ccc(N=C2SCC3CCCN2C3)cc1 (centres undefined) [N-(4-chlorophenyl)-3-thia-1-azabicyclo[3.3.1]nonan-2-imine]
Details	Molar enthalpy of transition or fusion [kcal/mol]	Normal melting temperature [°C]
[1]	2.82 ± 0.239	–
[2]	–	138.7 ± 0.5

[2]
Details	vapor or sublimation pressure [kPa]
368.15 K	6.26e-05 ± 6.7e-06
369.15 K	7.04e-05 ± 7.5e-06
371.15 K	8.91e-05 ± 9.5e-06
373.15 K	0.0001094 ± 1.2e-05
374.15 K	0.0001327 ± 1.4e-05
375.15 K	0.000149 ± 1.6e-05
376.15 K	0.0001659 ± 1.8e-05
378.15 K	0.0002065 ± 2.2e-05
380.15 K	0.0002459 ± 2.6e-05
382.15 K	0.0003128 ± 3.3e-05
384.15 K	0.0003887 ± 4.1e-05
386.15 K	0.0004737 ± 5e-05
388.15 K	0.0005748 ± 6.1e-05
390.15 K	0.0007333 ± 7.8e-05
391.15 K	0.0008441 ± 9e-05

CCc1ccc(N=C2SCC3CCCN2C3)cc1 (centres undefined) [N-(4-ethylphenyl)-3-thia-1-azabicyclo[3.3.1]nonan-2-imine]
Details	Molar enthalpy of transition or fusion [kcal/mol]	Normal melting temperature [°C]
[1]	3.92 ± 0.263	–
[2]	–	121.5 ± 0.5

[2]
Details	vapor or sublimation pressure [kPa]
359.15 K	1.09e-05 ± 1.2e-06
362.15 K	1.35e-05 ± 1.5e-06
364.15 K	1.75e-05 ± 1.9e-06
366.15 K	1.98e-05 ± 2.1e-06
368.15 K	2.54e-05 ± 2.7e-06
371.15 K	2.86e-05 ± 3.1e-06
374.15 K	3.88e-05 ± 4.1e-06
376.15 K	3.03e-05 ± 1.5e-05
377.15 K	5.41e-05 ± 5.8e-06
380.15 K	6.76e-05 ± 7.2e-06
381.15 K	7.59e-05 ± 8.1e-06
382.15 K	8.41e-05 ± 9e-06
384.15 K	8.43e-05 ± 9e-06
386.15 K	0.0001059 ± 1.1e-05
389.15 K	0.0001278 ± 1.4e-05

Cc1cccc(N=C2SCC3CCCN2C3)c1 (centres undefined) [N-(m-tolyl)-3-thia-1-azabicyclo[3.3.1]nonan-2-imine]
Details	Molar enthalpy of transition or fusion [kcal/mol]	Normal melting temperature [°C]
[1]	6.33 ± 0.263	–
[2]	–	125.4 ± 0.5

[2]
Details	vapor or sublimation pressure [kPa]
353.15 K	5.65e-05 ± 6e-06
355.15 K	7.21e-05 ± 7.7e-06
357.15 K	9.52e-05 ± 1e-05
359.15 K	0.0001112 ± 1.2e-05
361.15 K	0.0001522 ± 1.6e-05
362.15 K	0.0001678 ± 1.8e-05
364.15 K	0.0002107 ± 2.2e-05
366.15 K	0.0002637 ± 2.8e-05
368.15 K	0.0003248 ± 3.4e-05
370.15 K	0.0004227 ± 4.5e-05
372.15 K	0.0005258 ± 5.6e-05
374.15 K	0.0006715 ± 7.1e-05
376.15 K	0.0008044 ± 8.5e-05

From the NIST ThermoML archive (doi:10.1016/j.jct.2013.09.042)
